Like-named read-outs stand apart in the source and are kept apart here.
What was measured:
[1] = tested on: PC3M human prostate cancer cells; assay: Cyquant cell viability assay, PC3M; type: cell-based; details: for EC50: Homo sapiens, PC-3M, read-out: ED50 PC3M DMSO
Protocol: PC3M and PC3MLN4 cells were treated with vehicle, fenbendazole in DMSO, and fenbendazole in DMSO/NMP/TWEEN®-80/CrEL in varying doses for 72 hours. Cell viability assays using Cyquant reagent (Invitrogen, C7026) were performed as described in the literature. […] cells were seeded in 96 well plates overnight, before treated with either vehicle or benzimidazole solubilized in DMSO alone or in DMSO (12.5%)/NMP ([…])/TWEEN®-80 (25%)/Cr-EL (25%) for 72 hours. Cells were harvested by removing the media, washing once with phosphate buffered saline (PBS) and freezing at −80° C. for overnight. After thawing to room temperature, Cyquant reagent were prepared and added to the wells and the fluorescence intensity were measured with a spectrometer at 485 nm. Percent control was calculated by dividing the reading from drug-treated cells with the reading from vehicle-treated cells.
ED50 values were calculated from dose-effect analysis performed with Compusyn using data from the Cyquant cell viability assays.
ED50 values were calculated from dose-effect analysis performed with Compusyn using data from the Cyquant cell viability assays. All benzimidazoles drugs were solubilized in the combination carrier.

AT6.1 cells = assay: Normalized mitotic index (histone H3 phospho-Serine-28), AT6.1; type: cell-based; details: Rattus norvegicus, normalized against vehicle-treated cells
From the text: The mitotic index for each agent was normalized against those obtained from vehicle-treated cells, and compared with the activity of paclitaxel, a known inducer of mitotic arrest.

PC3MLN4 cells = assay: Annexin V/7-AAD apoptosis by flow cytometry, PC3MLN4; details: for apoptotic cells in PC3MLN4: 1 μM, combination carrier
Protocol: Annexin V/7-amino-actinomycin D labeling was done according to the manufacturer's instructions (BD Pharmingen, 559763) and samples were analyzed by flow cytometry. Briefly, the cells were treated for 72 hours with either vehicle or 1 μM benzimidazole drugs, solubilized in the combination carrier. Cells were trypsinized and washed with PBS before resuspending in assay binding buffer. Annexin V and 7-amino-actinomycin labeling was performed at room temperature for 15 minutes before analysis by flow cytometry (BD FACScan). Cells positively stained for annexin V in the lower right quadrant and upper right quadrant indicate early and late apoptosis, respectively.
All benzimidazole drugs were solubilized in the combination carrier. After 72 hours, the cells were analyzed by annexin V/7-AAD staining. Cells positively stained for annexin V in the lower right quadrant and upper right quadrant indicate early and late apoptosis, respectively.

[2] = tested on: AT6.1 Dunning rat prostate carcinoma; assay: Tumor burden by blood Gaussia luciferase assay in AT6.1 model; type: in vivo, nu/nu mice; details: 100 mg/kg; until day 22; FIG. 9
From the text: Similar to the survival model, treatment was not begun until day 5 when micrometastases were confirmed growing in the lung. For this approach, the AT6.1 cells were engineered to express secreted Gaussia luciferase enzyme. Using measurement of luciferase activity from the peripheral blood as an indicator of overall tumor burden, a significant reduction of tumor burden in the lungs of benzimidazole-treated animals when compared to vehicle-treated mice was observed. After 22 days, the mice were sacrificed and the lungs examined for viable tumor colonies.
Blood Gaussia luciferase assay was performed as described in the literature. Briefly, 10-20 μL peripheral blood was collected from the animals once a week via the retro-orbital vein. Secreted GAR luciferase activity was measured using a luminometer by adding 100 μL of 100 μM coelentrazine (Prolume, Nanolight, #303) to 5 μL blood and 2 μL of 20 mM EDTA. Relative luciferase reading from the blood collected represents the tumor burden in each animal. The reading was performed with blood collected at day 19 post inoculation when all mice were still alive.

[3] = Combination with paclitaxel, Cyquant cell growth inhibition, CompuSyn median-dose effect analysis; type: cell-based; details: alone or in combination
Protocol: Cell growth inhibition assays were performed using Cyquant reagent as described above. Drug interactions were quantitated by median-dose effect analysis and combination index values as well as dose reduction index were derived using CompuSyn software (ComboSyn, Inc.), as described previously in the literature. CI values of <1, =1, and >1 indicate synergism, additivity and antagonism between the drugs, respectively.
All benzimidazole drugs were prepared using the combination carrier and diluted with culture medium prior to treatment.

[4] = tested on: paclitaxel-resistant PC3-TR prostate cancer cells; assay: Cyquant cell viability assay, PC3-TR; type: cell-based, human; details: Homo sapiens, read-out: ED50 PC3-TR
Protocol: (§1) The cytotoxic effects of paclitaxel, fenbendazole, and albendazole were compared in paclitaxel-resistant PC3-TR and DU145-TR prostate cancer cells with their paclitaxel-sensitive counterparts, PC3 and DU145 cells. Cells were treated for 72 hours with vehicle, paclitaxel, fenbendazole or albendazole in various doses. Cell viability was measured using Cyquant assay, and percent control was calculated by dividing the fluorescent reading from drug-treated cells with those from vehicle-treated cells, indicating percentage of cell survival.

[5] = tested on: DU145 human prostate cancer cells; assay: Cyquant cell viability assay, DU145; type: cell-based; details: read-out: ED50 DU145
Protocol: as §1

[6] = tested on: paclitaxel-resistant DU145-TR prostate cancer cells; assay: Cyquant cell viability assay, DU145-TR; type: cell-based, human; details: Homo sapiens, read-out: ED50 DU145-TR
Protocol: as §1

[7] = tested on: MES-SA human uterine sarcoma cells; assay: Cell viability, MES-SA; type: cell-based; details: read-out: ED50 MES-SA
From the text: Benzimidazoles retain their anti-tumor activity in these paclitaxel-resistant cells, with higher potency when compared to the parental cells (see Table 4). Cells resistant to microtubule-stabilizing drugs such as the taxanes are more susceptible to microtubule-disrupting agents. To confirm this, human uterine sarcoma MES-SA/Dx5 cells, which are cross-resistant to various chemotherapeutic agents, including the microtubule-disrupting agents vincristine and colchicine, were used.

PC3 cells [8] = assay: Normalized mitotic index, PC3; type: cell-based, human; details: 1 μM
DU145-TR cells [9] = assay: Normalized mitotic index, DU145-TR; type: cell-based, human; details: 1 μM
PC3 cells [10] = assay: % apoptotic cells, PC3; type: cell-based, human; details: 1 μM
PC3-TR cells = assay: % apoptotic cells, PC3-TR; type: cell-based, human; details: 1 μM
DU145 cells = assay: % apoptotic cells, DU145; type: cell-based, human; details: 1 μM
DU145-TR cells [11] = assay: % apoptotic cells, DU145-TR; type: cell-based, human; details: 1 μM

CCCSc1ccc2nc(NC(=O)OC)[nH]c2c1 [Albendazole, albendazole]
EC50 ([1]; 72 h): 4.84 µM
fold induction at 1 µM (AT6.1 cells; read-out: Normalized mitotic index AT6.1, at 1 μM): > 1
apoptotic cells in PC3MLN4 (PC3MLN4 cells; 72 hours): 29.7%
cytotoxic activity via apoptosis in highly metastatic prostate cancer cells (PC3MLN4 cells; 72 hours, annexin V): induction of apoptosis
tumor burden compared to the control [2]: significant reduction in tumor burden
Dose ABZ ([3]; Fa 0.60): 5.249 µM
EC50 ([4]; 72 h): 800 nM
EC50 ([5]; DU-145, 72 h): 2.41 µM
EC50 ([6]; 72 h): 1080 nM
EC50 [7]: 1480 nM
Normalized mitotic index (6 hours) PC3 (PC3 cells [8]): 1.27
Normalized mitotic index (6 hours) DU145-TR (DU145-TR cells [9]): 1.13
% Apoptotic cells (72 hours) PC3 (PC3 cells [10]): 13.2%
% Apoptotic cells (72 hours) PC3-TR (PC3-TR cells): 25.8%
% Apoptotic cells (72 hours) DU145 (DU145 cells): 27%
% Apoptotic cells (72 hours) DU145-TR (DU145-TR cells [11]): 55.8%

COC(=O)Nc1nc2ccc(Sc3ccccc3)cc2[nH]1 [Fenbendazole, fenbendazole]
EC50 ([1]; solubilized in DMSO alone, 72 hours): 5.4 µM
reduction in ED50, DNTC compared to DMSO, PC-3M ([1]; solubilized in DNTC vs DMSO): ~2 fold
fold induction at 1 µM (AT6.1 cells; at 1 μM, read-out: Normalized mitotic index AT6.1): > 1
cytotoxic activity via apoptosis in highly metastatic prostate cancer cells (PC3MLN4 cells): induction of apoptosis
apoptotic cells in PC3MLN4 (PC3MLN4 cells; 72 hours): 31.4%
tumor burden compared to the control [2]: significant reduction in tumor burden
EC50 ([3]; Fa 0.50, read-out: Dose FBZ): 6.21 µM
EC50 ([4]; 72 hours, paclitaxel-resistant): 320 nM
EC50 ([5]; DU-145, 72 hours): 10.7 µM
EC50 ([6]; 72 hours, paclitaxel-resistant): 4210 nM
EC50 [7]: 3040 nM
Normalized mitotic index (6 hours) PC3 (PC3 cells [8]): 1.26
Normalized mitotic index (6 hours) DU145-TR (DU145-TR cells [9]): 1.18
% Apoptotic cells (72 hours) PC3 (PC3 cells [10]): 16.1%
% Apoptotic cells (72 hours) PC3-TR (PC3-TR cells): 34.4%
% Apoptotic cells (72 hours) DU145 (DU145 cells): 26%
% Apoptotic cells (72 hours) DU145-TR (DU145-TR cells [11]): 43.3%

— US20120064008A1, “COMPOSITIONS FOR THE TREATMENT OF METASTATIC CANCER AND METHODS OF USE THEREOF” (priority 2009, published 2012)
